Values joined by “and” are separate entries in the source; they are usually repeats but may differ in a detail not shown here. Equal entries are not always repeated. Where two headings read alike, the source gives them in different places.
Legend:
male ICR mice = experiment: Acute Toxicity Test; assay type: in vivo
Description: To groups of male ICR mice (6-week-old) each consisting of 5 animals, there were orally administered the compounds of Examples 13, 18, 25 and 30 and Comparative Examples 2 and 5 suspended in 5% gum arabic solution at doses of 150, 500 and 1500 mg/kg, followed by observation of the general symptoms of these animals during 7 days after the administration to thus evaluate the number of death. In this respect, mice were given feed and water ad libitum throughout this test except for the term extending from 16 to 20 hours before the administration and 4 hours after the administration.

Vasopressin V2 Receptor = Vasopressin V2 Receptor (Rattus norvegicus, UniProt Q00788); experiment: biochemical; assay type: binding, rat (Sprague-Dawley, female; kidney crude membrane); details: for inhibition at 0.1 µM: 1 h, read-out: Binding Rate of Vasopressin V2 Receptor; for IC50: [3H] vasopressin V2 antagonist 2 nM, 25° C., 60 minutes, read-out: Affinity for Vasopressin V2 Receptor, IC50
Vasopressin V1 Receptor = Vasopressin V1 Receptor (Rattus norvegicus, UniProt P30560); experiment: biochemical; assay type: binding, rat (Sprague-Dawley, female; liver crude membrane); details: for inhibition at 0.1 µM: 1 h, read-out: Binding Rate of Vasopressin V1 Receptor
Description: The livers excised from Sprague-Dawley female rats were cut into small pieces, and were homogenized in 50 mM Tris-HCl, pH 7.4 hereunder referred to as "buffer"). The homogenate was centrifuged at 50000×g, at 4° C. for 20 minutes. The pellet was added the buffer in an amount of 10 times the volume of the pellet, the mixture was recentrifuged by the same method as described above to wash the residue. The buffer was further added to the resulting pellet so that the protein content thereof was adjusted to 10 mg/ml to thus give a crude membrane fraction of rat liver. The crude membrane fraction of rat liver was used in the following test. More specifically, 5000 μg of the crude liver membrane was incubated with [^3 H]-Arg-vasopressin V-1 antagonist ([^3 H) vasopressin V1 antagonist: 2 nM) and various concentration (3×10^-12 to 10^-6) of the test compounds in a 1000 μL of buffer containing 10 mM magnesium chloride, 10 mM potassium chloride and 0.1% bovine serum albumin at 25° C. for 60 minutes. Thereafter the incubation mixture was rapidly filtered by vacuum using a cell harvester. The filters were washed with buffer to remove free ligands and excess buffer, and to thus trap labeled ligand linked with the receptor on the filter paper. The filter paper was sufficiently dried and mixed with a liquid scintillator, and the amount of the [^3 H] vasopressin V1 antagonist bonded to the membrane was determined using a liquid scintillation counter. The inhibition rate at each concentration was calculated according to the following equation:
Inhibition Rate (%)=100-[(B-N)/(B0 -N)]×100
Wherein B represents the amount of the [^3 H] vasopressin V1 antagonist bonded to the membrane in the presence of known amounts of the compound to be tested and the [^3 CH] vasopressin V1 antagonist;
B0 represents the amount of the [^3 H] vasopressin V1 antagonist bonded to the membrane in the absence of the compound to be tested;
N represents the amount of the [^3 H] vasopressin V1 antagonist bonded to the membrane in the presence of an excess of vasopressin (10^-6 M).
The IC50 value (the concentration required to cause 50% inhibition of the specific binding of [^3 H]-V1 antagonist) was determined. […] On the other hand, for the compounds which were investigated only one concentration (10^-7 M), the inhibition rate at that concentration was defined to be the binding rate.

Normal Conscious Rat [1] = experiment: Aquaretic Effects in Normal Conscious Rat (urine volume); assay type: in vivo, rat (Sprague-Dawley, male)
Description: Aquaretic Effects in Normal Conscious Rat
(§1) Studies were performed with Sprague-Dawley male SPF rats (body weight: 240 to 320 g; 8-week-old). In this experiment, each group consisted of not less than 4 animals and rats were fasted over 16 to 20 hours. The animals were acclimatized in metabolic cages for one hour, then each compound to be tested was dissolved in 100% N,N-dimethylformamide or suspended in 5% gum arabic solution and administered to these animals intravenously (iv.) in a dose of 3 mg/kg or orally (p.o.) in a dose of 30 mg/kg. Immediately after the test compound or vehicle were orally administered, saline (25 ml/kg) was given orally. Spontaneous voided urines were collected for 4 hours after the administration of the compound and the amount of the urine were determined. In this case, the control group consisted of animals to which only 5% gum arabic was orally administered.
In addition, known compounds of Comparative Examples 2 and Comparative Examples 3 and 4 represented by the following formulas were used as control compounds.

Normal Conscious Rat [2] = experiment: Urinary electrolytes and urinary osmotic pressure in conscious rat; assay type: in vivo, rat (Sprague-Dawley, male); details: 0-2 hours, relation to urine volume
Description: as §1
Separately, the cumulative urine in each animal was collected for 2 hours after the administration of the compound, and analyze the amounts of sodium and potassium as electrolytes present in the urine (ion-selective electrode method), the amount of chlorine (coulometric titration) and urinary osmotic pressure (cryoscopic method). The results thus observed for typical compounds of the present invention are plotted on the accompanying drawings (FIGS. 1, 2, 3 and 4). […]. In this test, each compound tested was used in the following dose. […]

[3] = 150 mg/kg, oral, 7 days observation
[4] = 500 mg/kg, oral, 7 days observation
[5] = 1500 mg/kg, oral, 7 days observation
[6] = 10^-7 M, inhibition rate at this concentration
[7] = [3H] vasopressin V1 antagonist 2 nM, 25° C., 60 minutes, read-out: Affinity for Vasopressin V1 Receptor, IC50

Chain of Vasopressin V2 Receptor (Q00788 whole entry): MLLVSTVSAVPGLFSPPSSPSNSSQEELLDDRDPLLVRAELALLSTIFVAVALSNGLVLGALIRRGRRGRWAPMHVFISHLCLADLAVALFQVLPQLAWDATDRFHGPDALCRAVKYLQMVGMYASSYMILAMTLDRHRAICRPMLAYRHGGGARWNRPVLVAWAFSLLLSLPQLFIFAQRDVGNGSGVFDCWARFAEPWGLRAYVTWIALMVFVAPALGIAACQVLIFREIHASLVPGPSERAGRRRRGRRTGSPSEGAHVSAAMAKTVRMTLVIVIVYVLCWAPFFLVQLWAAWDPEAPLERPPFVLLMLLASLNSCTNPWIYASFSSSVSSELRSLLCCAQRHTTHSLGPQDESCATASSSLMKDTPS
Chain of Vasopressin V1 Receptor (P30560 whole entry): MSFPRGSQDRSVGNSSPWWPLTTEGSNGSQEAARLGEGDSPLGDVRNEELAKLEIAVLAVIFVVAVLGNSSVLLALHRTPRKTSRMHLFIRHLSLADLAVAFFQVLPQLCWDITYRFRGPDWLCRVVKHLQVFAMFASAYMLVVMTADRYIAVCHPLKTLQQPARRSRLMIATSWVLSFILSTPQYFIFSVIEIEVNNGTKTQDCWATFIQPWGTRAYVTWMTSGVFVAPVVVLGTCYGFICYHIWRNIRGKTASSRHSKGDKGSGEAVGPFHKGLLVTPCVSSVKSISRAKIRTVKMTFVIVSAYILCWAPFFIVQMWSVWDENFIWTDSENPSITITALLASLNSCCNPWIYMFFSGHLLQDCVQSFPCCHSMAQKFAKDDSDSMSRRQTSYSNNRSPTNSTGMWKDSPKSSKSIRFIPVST

| Structure (SMILES) | Amount of Urine Volume (Normal Conscious Rat [1]; 3 mg/kg, i.v.) | Amount of Urine Volume (Normal Conscious Rat [1]; 30 mg/kg, p.o.) | number of death out of 5 or 6 animals (male ICR mice; [3]) | number of death out of 5 or 6 animals (male ICR mice; [4]) | number of death out of 5 or 6 animals (male ICR mice; [5]) | inhibition at 0.1 µM (Vasopressin V2 Receptor; [6]) | inhibition at 0.1 µM (Vasopressin V1 Receptor; [6]) | further results |
| --- | --- | --- | --- | --- | --- | --- | --- | --- |
| Cc1ccccc1C(=O)Nc1ccc(C(=O)N2CCCC(N(C)C)c3ccccc32)cc1 (stereo not drawn) [Comp. Ex. 2, reference compound] | 22.9 ml/kg/0-4 hr. | 79.1 ml/kg/0-4 hr. | – | – | – | – | – | number of death out of 5 or 6 animals (male ICR mice; mouse, in vivo): 4 out of 5 and 0/5 and 4/5; inhibition at 0.1 µM (Vasopressin V2 Receptor): 91.2%; IC50 (Vasopressin V1 Receptor): > 1000 nM; inhibition at 0.1 µM (Vasopressin V1 Receptor): 3.4% |
| NS(=O)(=O)c1cc(C(=O)O)c(NCc2ccco2)cc1Cl [Comp. Ex. 3, Furosemide, reference compound] | 27.3 ml/kg/0-4 hr. | 59.9 ml/kg/0-4 hr. | – | – | – | – | – | urinary osmotic pressure (Normal Conscious Rat [2]; FIG. 4): increased approximately in proportion to the increase in the amount of the urine; amount of electrolytes excreted in the urine (Normal Conscious Rat [2]; FIGS. 1-3): increased approximately in proportion to the increase in the amount of the urine |
| Cc1nc2c([nH]1)-c1ccccc1N(C(=O)c1ccc(NC(=O)c3ccccc3-c3ccccc3)cc1)CC2 [Comparative Example 5, reference compound] | – | – | 0/5 | 2 out of 5 and 2/5 | 2 out of 5 and 2/5 | – | – | – |
| O=C(Nc1ccc(C(=O)N2C[C@H]3C[C@@H](O)CN3c3ccccc32)cc1)c1ccccc1-c1ccccc1 [Example 13, (2R,3aR)-2-Hydroxy-5-[4-[(2-Phenylbenzoyl) Amino]Benzoyl]-1,2,3,3a,4,5-Hexahydro-Pyrrolo[1,2-a]Quinoxaline] | 55.6 ml/kg/0-4 hr. | 82.0 ml/kg/0-4 hr. | – | 0/5 | 0/5 | – | – | – |
| Cc1ccc(-c2ccccc2C(=O)Nc2ccc(C(=O)N3C[C@H]4C[C@H](O)CN4c4ccccc43)cc2)cc1 [Example 18, (2S, 3aR)-2-Hydroxy-5-[4-[[2-(4-Tolyl) Benzoyl]Amino]Benzoyl]-1,2,3,3a,4,5-Hexahydro-Pyrrolo[1,2-a]Quinoxaline] | 79.2 ml/kg/0-4 hr. | 96.3 ml/kg/0-4 hr. | 0/6 | 0/6 | 0/6 | 100% | 58.3% | IC50 (Vasopressin V2 Receptor): 0.18 nM; IC50 (Vasopressin V1 Receptor; [7]): 66 nM |
| O=C(Nc1ccc(C(=O)N2C[C@@H]3CCCN3C(=O)c3ccccc32)cc1)c1ccccc1-c1ccccc1 [Example 25, (11aS)-10-[4-[(2-Phenylbenzoyl) Amino]Benzoyl]-1,2,3,10,11, 11a-Hexahydro-5H-Pyrrolo[2,1-c][1,4]Benzodiazepin-5-One] | 58.5 ml/kg/0-4 hr. | 102.7 ml/kg/0-4 hr. | 0/6 | 0/6 | 0/6 | 100% | 4.1% | IC50 (Vasopressin V2 Receptor): 1.6 nM; IC50 (Vasopressin V1 Receptor; [7]): > 1000 nM |
| O=C1C[C@H]2CN(C(=O)c3ccc(NC(=O)c4ccccc4-c4ccccc4)cc3)c3ccccc3C(=O)N2C1 [Example 30, (11aS)-10-[4-[(2-Phenylbenzoyl) Amino]Benzoyl]-1,2,3,10,11, 11a-Hexahydro-5H-Pyrrolo [2,1-c][1,4]Benzodiazepin-2,5-Dione] | 57.1 ml/kg/0-4 hr. | 103.0 ml/kg/0-4 hr. | 0/6 | 0/6 | 0/6 | – | – | – |
| Cl.O=C1C[C@@H]2CN(C(=O)c3ccc(NC(=O)c4ccccc4-c4ccccc4)cc3)c3ccccc3CN2C1 [Example 48, (11aR)-10-[4-[(2-Phenylbenzoyl) Amino]Benzoyl]-1,2,3,10,11, 11a-Hexahydro-5H-Pyrrolo[2,1-c][1,4]Benzodiazepin-2-One Hydrochloride] | 78.9 ml/kg/0-4 hr. | 14.8 ml/kg/0-4 hr. | – | – | – | – | – | inhibition at 0.1 µM (Vasopressin V2 Receptor): 96.8%; inhibition at 0.1 µM (Vasopressin V1 Receptor): 42.3% |
| O=C(Nc1ccc(C(=O)N2CC[C@@H]3CCCN3c3ccccc32)cc1)c1ccccc1-c1ccccc1 [Example 49, (3aS)-6-[4-[(2-Phenylbenzoyl) Amino]Benzoyl]-2,3,3a,4,5,6-Hexahydro-1H-Pyrrolo[1,2-a][1,5]Benzodiazepine] | 76.5 ml/kg/0-4 hr. | 43.8 ml/kg/0-4 hr. | – | – | – | 92.8% | 88.3% | – |
| O=C(Nc1ccc(C(=O)N2CC[C@@H]3C[C@@H](O)CN3c3ccccc32)cc1)c1ccccc1-c1ccccc1 [Example 50] | 60.0 ml/kg/0-4 hr. | 36.0 ml/kg/0-4 hr. | – | – | – | 97.8% | 92.4% | – |
| O=C(Nc1ccc(C(=O)N2CC[C@H]3C[C@@H](O)CN3c3ccccc32)cc1)c1ccccc1-c1ccccc1 [Example 52, (2R,3aS)-2-Hydroxy-6-[4-[(2-Phenylbenzoyl) Amino]Benzoyl]-2,3,3a,4,5,6-Hexahydro-1H-Pyrrolo[1,2-a][1,5]Benzodiazepine] | 60.6 ml/kg/0-4 hr. | 36.6 ml/kg/0-4 hr. | – | – | – | 100% | 95.7% | – |
| O=C(Nc1ccc(C(=O)N2CC[C@H]3C[C@H](O)CN3c3ccccc32)cc1)c1ccccc1-c1ccccc1 [Example 54, (2S, 3aS)-2-Hydroxy-6-[4-[(2-Phenylbenzoyl) Amino]Benzoyl]-2,3,3a,4,5,6-Hexahydro-1H-Pyrrolo[1,2-a][1,5]Benzodiazepine] | 78.3 ml/kg/0-4 hr. | 68.0 ml/kg/0-4 hr. | – | – | – | 95.1% | 98.6% | – |

From patent publication US6225306A, “Biphenyl derivatives and drug composition” (Wakamoto Pharmaceutical Co., Ltd., priority 1997, dated 2001)
